Laboratory results: US9506933B2, “Method of preparing antigen for acquiring anti-hydrophobic peptide antibody” (TOAGOSEI CO., LTD., priority 2011, dated 2016)
Each block holds one substance with its values, some of them ahead of it. Ends that are not written are not given here.

How the values were obtained:
Format in all cases: physicochemical
[1] = Particle size of FCG24 and FLF23 in 1% Tween 20 suspensions (Countess / dynamic light scattering); details: 1% Tween 20 suspension; dynamic light scattering particle size analyser
[2] = Test of solubility of peptide SPAPP to various solvents (visual transparency)
Source text: (1) Powdered purified SPAPP was mixed with various solvents at various concentrations to examine solubility.
The term “soluble” used in the following description means a state in which solvent is visually transparent and “insoluble” means a state in which solvent is visually cloudy.

[3] = Isoelectric point of SPAPP
[4] = Molecular weight distribution of SPAPP aggregates (centrifugation, spin filters, BCA assay)
Experimental: The molecular weight distribution of SPAPP aggregates in the suspension was measured in accordance with the following procedure.
(i) The suspension was centrifuged at 15,000 rpm for five minutes and divided into supernatant and precipitate. This centrifugation causes particles equal to or larger than about 1 μm to precipitate.
(ii) The supernatant was applied to a molecular weight 100,000 cutoff spin filter (Amicon Microcon YM-100) and caused to pass through the filter by centrifugation.
(iii) The flow-through solution of (ii) was applied to a molecular weight 10,000 cutoff spin filter and caused to pass through the filter by centrifugation.
On each stage of the process described above, the protein concentration of the solution was measured by the BCA protein assay (Thermo Fisher Scientific) using BSA as the standard.
The time from suspension of SPAPP in pure water to addition of various surfactants was changed to confirm that the molecular size distribution of aggregates varies depending on the time. For example, in the case of 1% Tween 20, the insoluble fraction (precipitate) was 5% when the surfactants were added immediately after suspension of SPAPP in pure water, 17% when added after 1.5 hours, and 48% when added after 3 hours.

[5] = Molecular size distribution of SPAPP in other nonionic surfactant solutions; details: 1% PEG60 dodecyl ether, Triton X-100 or Nonidet P-40; surfactant added immediately or after 90 minutes
Experimental: It was examined whether SPAPP forms high-molecular-weight aggregates in other nonionic surfactant solutions. PEG60 dodecyl ether (Polypure), Triton X-100, and Nonidet P-40 were used as surfactants at 1% in each case. As was the case with the method of Example 2, each of the surfactants was used for preparing SPAPP suspension and, after the size fractionation using centrifugation and spin-type molecular weight cutoff filters, 10% SDS was added to and mixed with each of fractions to the final concentration of 1% to dissolve the aggregates. The peptide concentrations of the fractions were measured by the BCA assay and the molecular weight distribution of SPAPP aggregates were summarized as shown in FIGS. 6A and 6B. […] In the histograms, “Ppt” indicates peptides removed by centrifugation, i.e., precipitate, which is considered to have a size of 1 μm or larger and a molecular weight of several hundred kilodaltons or more. “>100 kDa” indicates 100 kDa or more and “<100 kDa” indicates 100 kDa or less.

Substance: FLFCWILMILVVLTFVVGANVEK (listed as Homo sapiens) [FLF23]
particle size [1]: particles with sizes larger than the signals of only the 1% Tween 20 solution were confirmed

Solubility ([2]; 0.1% trifluoroacetic acid (pH 2.0), SPAPP conc. 7.5 mg/ml): Soluble
Solubility ([2]; 1% Nonidet P40, SPAPP conc. 1~5 mg/ml): Soluble
Solubility ([2]; 1% PEG12, SPAPP conc. 1~5 mg/ml): Soluble
Solubility ([2]; 1% PEG24, SPAPP conc. 1~5 mg/ml): Soluble
Solubility ([2]; 1% PEG60 docesylether, SPAPP conc. 1~5 mg/ml): Soluble
Solubility ([2]; 1% SDS (anionic surfactant), SPAPP conc. 1~5 mg/ml): Soluble
Solubility ([2]; 1% TritonX-100, SPAPP conc. 1~5 mg/ml): Soluble
Solubility ([2]; 1% Tween20, SPAPP conc. 1~5 mg/ml): Soluble
Solubility ([2]; 1% Tween80, SPAPP conc. 1~5 mg/ml): Soluble
Solubility ([2]; 1% cholesterol-PEG (NOF CORPORATION NO. CS050), SPAPP conc. 1~5 mg/ml): Soluble
Solubility ([2]; 1% formic acid (pH 3.0), SPAPP conc. 0.5 mg/ml): Soluble
Solubility ([2]; 100% DMF, SPAPP conc. 20 mg/ml): Soluble
Solubility ([2]; 100% DMS0, SPAPP conc. 50 mg/ml): Soluble
Solubility ([2]; 100% methanol, SPAPP conc. 0.5 mg/ml): Soluble
Solubility ([2]; Phosphate buffer (PBS) (pH 7)): Insoluble
Solubility ([2]; Pure water, SPAPP conc. 0.1 mg/ml): Insoluble
Solubility ([2]; neutral aqueous solutions): completely insoluble
Solubility ([2]; neutral aqueous solutions containing polar and nonionic surfactants): soluble
Solubility ([2]; polar organic solvents): soluble
Solubility ([2]; strongly acidic aqueous solutions): soluble
isoelectric point [3]: 10.9
insoluble fraction (precipitate) ([4]; 1% Tween 20 added after 1.5 hours in pure water): 17%
insoluble fraction (precipitate) ([4]; 1% Tween 20 added after 3 hours in pure water): 48%
insoluble fraction (precipitate) ([4]; 1% Tween 20 added immediately after suspension of SPAPP in pure water): 5%
Substance: MLPGLALLLLAAWTARA-OH [SPAPP]
formation of high-molecular-weight aggregates [5]: high-molecular-weight aggregates are formed with any of the surfactants
